Experimental data as given in patent US12637703B2, “Compositions and methods for detection of oxidizable analytes” (President and Fellows of Harvard College, priority 2019, dated 2026).

Tests used:
[1] = molecular target: T1, horseradish peroxidase (HRP) (Armoracia rusticana, UniProt P00433); test: Screening of NIR dye library for HRP substrates (hydrogen peroxide-dependent loss of fluorescence); type: biochemical; settings: for enzymatic oxidation by HRP, positive controls of the library screening: known HRP substrates, homovanillic acid 0.99 mM, HRP 0.10 U/mL, 10 min, Amplex Red 30 min, room temperature; for oxidation by HRP (loss of fluorescence) at different hydrogen peroxide concentrations: NIR dye 2.5 μM, HRP 105 mU/mL, phosphate buffer 50 mM pH 7.5; for oxidation by HRP (loss of fluorescence) at different hydrogen peroxide concentrations / hydrogen peroxide sensing profile (loss in relative fluorescence intensity): 10 min room temperature; for hydrogen peroxide sensing profile (loss in relative fluorescence intensity): different dye concentrations, HRP-containing buffer pH 7.5
T1 construct: purchased Thermo Fisher Scientific A22188
T1 sequence (P00433 31-338): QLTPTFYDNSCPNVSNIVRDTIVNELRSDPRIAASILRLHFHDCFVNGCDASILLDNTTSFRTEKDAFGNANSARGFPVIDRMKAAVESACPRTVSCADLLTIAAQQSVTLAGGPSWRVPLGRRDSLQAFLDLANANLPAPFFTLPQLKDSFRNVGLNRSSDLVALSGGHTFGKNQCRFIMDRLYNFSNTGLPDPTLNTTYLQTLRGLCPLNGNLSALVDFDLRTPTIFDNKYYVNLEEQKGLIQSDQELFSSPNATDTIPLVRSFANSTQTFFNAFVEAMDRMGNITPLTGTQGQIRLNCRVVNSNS
Experimental: FIGS. 2A-2C are related to screening of near-infrared (NIR) dye library for HRP substrates. NIR dye concentration: 2.5 μM; HRP concentration: 105 mU/mL; buffer composition: phosphate buffer 50 mM at pH 7.5; 10 min incubation time at room temperature. All results as means+SD (n=3).
FIG. 2E is a graph showing the relative fluorescence intensity of a homovanillic acid-containing solution in the presence of hydrogen peroxide and HRP, therefore evaluating hydrogen peroxide sensing with homovanillic acid (a known substrate of HRP) and HRP. HRP catalyzes the dimerization of homovanillic acid to a fluorescent product in the presence of hydrogen peroxide. HRP concentration: 0.10 U/mL; homovanillic acid: 0.99 mM; λex 312 nm; λem 430 nm; incubation time 10 min at room temperature. All results as mean±SD (n=3).
FIG. 2F is a graph showing the relative fluorescence intensity of an Amplex Red®-containing solution in the presence of hydrogen peroxide and HRP, therefore evaluating hydrogen peroxide sensing with Amplex Red® (a known substrate of HRP) and HRP. HRP catalyzes the oxidation of Amplex Red® to the fluorescent product resorufin in the presence of hydrogen peroxide. Excitation/emission wavelengths: λex 530 nm; λem 590 nm; incubation time 30 min at room temperature. Assay conducted in accordance to manufacturer's instructions. All results as mean±SD (n=3).
FIGS. 3B-3E are related to hydrogen peroxide sensing using HRP-mediated S7 oxidation. NIR dye concentration unless stated: 10 μM (FIG. 3C), 7.5 μM (FIG. 3D); HRP concentration: 105 mU/mL (FIG. 3B); buffer composition: phosphate buffer 50 mM at pH 7.5; 10 (FIGS. 3B, 3D) or 30 min (FIG. 3E) incubation time at room temperature. […] All results as means+SD (n=3).
(§1) NIR dyes were dissolved in water (sulfo-cyanine dyes, Lumiprobe, Hannover, Germany, and all investigated IRDyes except for IRDye 800RS, LI-COR Biosciences, Lincoln, NE) or dimethyl sulfoxide (Sigma Aldrich, St. Louis, MO; cyanine dyes, Lumiprobe, and IRDye 80016, LI-COR Biosciences). 10 μL of dye solution (final 2.5 μM) were added to 100 uL of HRP solution (final 105 mU/mL) and hydrogen peroxide standards (both from Amplex™ Red Hydrogen Peroxide/Peroxidase Assay Kit A22188, Thermo Fisher Scientific, Waltham, MA) in sodium chloride-containing phosphate buffer (Sigma Aldrich) 50 mM at pH 7.5 at 300 mOsmol/kg and protected from light. After 10 min at room temperature, the fluorescence intensity was determined by a plate reader (BioTek NEO2, BioTek, Winooski, VT) at the fluorescence excitation and emission wavelength provided by the manufacturer.
To determine the absorbance spectra of S7, 10 μL of dye solution (final 7.5 μM) were added to 100 μL of HRP solution (final 105 mU/mL) and hydrogen peroxide standards in isotonic phosphate buffer 50 mM at pH 7.5. After 15 min, the absorbance spectra were recorded by a plate reader (BioTek NEO2).

[2] = Fluorescence of dyes with hydrogen peroxide in HRP-free buffer; type: physicochemical; settings: 400-fold molar excess of hydrogen peroxide
Experimental: as §1, with “([…]” for “(final 2.5 μM) were added to 100 uL of HRP solution (final 105 mU/mL) and hydrogen peroxide standards (both from Amplex™ Red Hydrogen”

[3] = Superoxide testing (SOTS-1 as superoxide radical source); type: physicochemical; settings: 100-fold excess of superoxide radical (SOTS-1); 30 min room temperature; pH 7.5
Experimental: FIG. 3E is a graph showing the relative fluorescence intensity of several NIR dyes and the superoxide-sensitive dye DHE (positive control) at different concentrations of the superoxide radical source SOTS-1 (E).
Superoxide was generated in accordance with the literature. In brief, SOTS-1 (Cayman Chemicals, Ann Arbor, MI) was dissolved in dimethylformamide (Sigma Aldrich) and added to a near-infrared fluorescent dye-containing ([…]; DHE concentration 10 μM) isotonic phosphate buffer 50 mM at pH 7.5 ([…]) and protected from light. After 30 min at room temperature, the fluorescence intensity was determined by a plate reader (BioTek NEO2) at the fluorescence excitation and emission wavelength provided by the manufacturer.

| Compound | enzymatic oxidation by HRP, positive controls of the library screening [1] | oxidation by HRP (loss of fluorescence) at different hydrogen peroxide concentrations [1] | hydrogen peroxide sensing profile (loss in relative fluorescence intensity) [1] | fluorescence properties upon exposure to hydrogen peroxide without HRP [2] | fluorescence emission in the presence of superoxide radical [3] |
| --- | --- | --- | --- | --- | --- |
| CC(=O)N1c2ccc(O)cc2Oc2cc(O)ccc21 [Amplex Red®] | enzymatically oxidized in a hydrogen peroxide-dependent manner | – | – | – | – |
| CC1(C)C(/C=C/C=C/C=C/C=C2\N(CCCCS(=O)(=O)O)c3ccc4ccccc4c3C2(C)C)=[N+](CCCCS(=O)(=O)[O-])c2ccc3ccccc3c21 [ICG, indocyanine green] | – | oxidized by HRP in a hydrogen peroxide concentration-dependent manner | linear hydrogen peroxide sensing profile | preserved their fluorescence properties | – |
| COc1cc(CC(=O)O)ccc1O [homovanillic acid] | enzymatically oxidized in a hydrogen peroxide-dependent manner | – | – | – | – |
| CN1/C(=C/C=C/C=C/C2=[N+](CCCCCC(=O)O)c3ccc(S(=O)(=O)O)cc3C2(C)C)C(C)(C)c2cc(S(=O)(=O)O)ccc21 [sulfo-cyanine 5] | – | – | – | – | preserved their fluorescence emission |
| sulfo-cyanine 7 [S7] | – | oxidized by HRP in a hydrogen peroxide concentration-dependent manner | followed a sigmoid curve | preserved their fluorescence properties | preserved their fluorescence emission |
